Measurements as given in the NIST ThermoML archive (doi:10.1021/je8002223).
Numbers after ± are expanded uncertainties.

Assays:
[1] = Molar enthalpy of transition or fusion
[2] = DTA

Row | SMILES | Molar enthalpy of transition or fusion ([1]; Crystal) [kcal/mol] | Normal melting temperature ([2]; Crystal) [°C] | Molar enthalpy of transition or fusion ([1]; Crystal 1) [kcal/mol] | Molar enthalpy of transition or fusion ([1]; Crystal 2) [kcal/mol] | Triple point temperature ([2]; Crystal 1) [K] | Triple point temperature ([2]; Crystal 2) [K]
1 | [Cl][Ce]([Cl])[Cl] [cerium trichloride] | 13.3 ± 1.43 | 813 ± 2 |  |  |  | 
2 | [Cl-].[Cs+] [cesium chloride] |  |  | 4.85 ± 0.574 | 0.908 ± 0.191 | 918 ± 2 | 743 ± 2
